Assays:
Test in all cases: relative viability (nuclei count vs DMSO), 5 days (fraction); higher = more cells survive
[1] = compound: C1=CC=C2C(=C1)N=C(S2)C(C#N)C3=NC(=NC=C3)NCCC4=CN=CC=C4 + CS(=O)(=O)CCNCc1ccc(-c2ccc3ncnc(Nc4ccc(OCc5cccc(F)c5)c(Cl)c4)c3c2)o1 [Lapatinib] (partner 2 µM)
Summary of the method: (§1)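 Relative viability was taken as the ratio of nuclei in treated wells to nuclei in vehicle wells. Lung cancer cell lines in 1536-well plates received compounds by pin tool one day after seeding, either one drug alone or a fixed anchor-drug dose plus five library-drug doses (not always all listed) in √10 steps. Nuclei were counted on 4× images after 5 days of treatment, and values are medians of duplicate plates.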

[2] = compound: C#Cc1cccc(Nc2ncnc3cc(OC)c(OCCCCCCC(=O)NO)cc23)c1 [CUDC-101] + C[C@@H](Oc1cc(-c2cnn(C3CCNCC3)c2)cnc1N)c1c(Cl)ccc(F)c1Cl [Crizotinib] (partner 1 µM)
Summary of the method: as §1

[3] = compound: COc1cc(N2CCC(N3CCN(C)CC3)CC2)ccc1Nc1ncc(Cl)c(Nc2ccccc2S(=O)(=O)C(C)C)n1 [NVP-TAE684] + C[C@@H](Oc1cc(-c2cnn(C3CCNCC3)c2)cnc1N)c1c(Cl)ccc(F)c1Cl [Crizotinib] (partner 1 µM)
Summary of the method: as §1

[4] = compound: COc1cc(N2CCC(N3CCN(C)CC3)CC2)ccc1Nc1ncc(Cl)c(Nc2ccccc2S(=O)(=O)C(C)C)n1 [NVP-TAE684] + N=C(N)NC(=N)NCCc1ccccc1 [Phenformin] (partner 250 µM)
Summary of the method: as §1

Cell Line	relative viability ([1]; first compound 0.005 µM)	relative viability ([1]; first compound 0.01581 µM)	relative viability ([1]; first compound 0.05 µM)	relative viability ([1]; first compound 0.1581 µM)	relative viability ([1]; first compound 0.5 µM)	relative viability ([2]; first compound 0.01 µM)	relative viability ([2]; first compound 0.03162 µM)	relative viability ([2]; first compound 0.1 µM)	relative viability ([2]; first compound 0.3162 µM)	relative viability ([2]; first compound 1 µM)	relative viability ([3]; first compound 0.2 µM)	relative viability ([3]; first compound 0.6325 µM)	relative viability ([3]; first compound 2 µM)	relative viability ([4]; first compound 0.2 µM)	relative viability ([4]; first compound 0.6325 µM)	relative viability ([4]; first compound 2 µM)
HCC-44	0.848	1.02	1.01	1.16	0.823	0.661	0.712	0.752	0.779	0.748	0.782	0.868	0.489	0.263	0.141	0.0733
EKVX	0.237	0.185	0.201	0.211	0.195	0.977	0.892	0.964	1.07	0.604	0.775	0.859	0.582	0.24	0.23	0.208
NCI-H23		1.16	1.12	1.22	1.14	0.68	0.442	0.639	0.547	0.495	0.463	0.451	0.254	0.987	0.757	0.518
NCI-H2347	1.08	0.909	0.846	1.04	0.91	0.749	0.68	0.714	0.673	0.721	0.683	0.619	0.617	0.252	0.302	0.294
SK-LU-1		0.856	0.934	1.18	0.832	1.13	1.03	0.795	0.77	0.579	0.972	0.81	0.412	0.577	0.413	0.303
A549	1.04	0.97	1.04	1.07	0.942	0.855	1	0.927	0.793	0.632	0.709	0.458	0.0727	0.153	0.171	0.122
LU99A	0.704	1.02	0.886	1.17	0.976	0.516	0.585	0.458	0.45	0.256	0.651	0.576	0.262	0.912	0.886	0.659
NCI-H596	0.921	1.11	1.07	1.23	0.937	0.675	1	1.01	0.979	0.536	0.974	0.886	0.717	0.709	0.656	0.579
A-427	0.78	0.889	1.01	1.12	1.08	1.05	0.868	0.773	0.829	0.579			0.512	0.285	0.257	0.221
SW 900														0.592	0.474	0.385
COR-L 105	0.362	0.336	0.342	0.372	0.369	0.724	0.825	0.725	0.433	0.267	0.677	0.461	0.388	0.457	0.259	0.211
LOU-NH91	0.799	0.758	0.688	0.739	0.724	0.701	0.605	0.699	0.521	0.539	0.7	0.725	0.592	0.631	0.601	0.531
COR-L23	0.629	1.15	1.01	1.29	0.71	0.677	0.674	0.626	0.555	0.295	0.536	0.69	0.238	0.329	0.406	0.201
HCC-15	0.798	0.84	0.817	0.947	0.805	0.804	0.836	0.798	0.843	0.715	0.806	0.792	0.319	0.495	0.396	0.238
LCLC-103H						0.891	0.916	1.08	1.08	0.957	1.16	1.08	1	0.297	0.356	0.276
HARA	0.692	0.862	0.643	1.01	0.676	0.904	0.866	0.89	0.799	0.395	1.07	1.02	0.508	0.397	0.394	0.304
BEN	0.561	0.689	0.62	0.792	0.826	1.04	0.772	0.933	0.809	0.579	0.713	0.837	0.678	0.257	0.285	0.231
LC-2-ad	0.648	0.976	0.946	1	0.634	0.454	0.482	0.432	0.436	0.343	0.419	0.433	0.315	0.574	0.5	0.456
NCI-H1299	0.941	0.991	0.946	0.998	0.918	0.926	0.957	0.998	0.837	0.934	1.01	0.959	0.623			
NCI-H2009	0.899	0.892	0.977	1.11	1.02	1.02	0.992	1.11	0.991	1.03	1.07	0.968	0.788	0.47	0.458	0.328
NCI-H1395	0.953		1.17	1.08	1.08									0.462	0.411	0.404
NCI-H1650	0.894	0.658	0.758	0.829	0.863	0.859	0.782	0.942	0.796	0.595	0.899	0.89	1	0.505	0.285	0.148
NCI-H2085	0.83	0.737	0.763	0.891	0.761	0.865	0.861	0.772	0.779	0.682	0.788	0.872	0.55	0.753	0.694	0.694

Cell Line	relative viability ([1]; first compound 0.005 µM)	relative viability ([1]; first compound 0.01581 µM)	relative viability ([1]; first compound 0.05 µM)	relative viability ([1]; first compound 0.1581 µM)	relative viability ([1]; first compound 0.5 µM)	relative viability ([2]; first compound 0.01 µM)	relative viability ([2]; first compound 0.03162 µM)	relative viability ([2]; first compound 0.1 µM)	relative viability ([2]; first compound 0.3162 µM)	relative viability ([2]; first compound 1 µM)	relative viability ([3]; first compound 0.2 µM)	relative viability ([3]; first compound 0.6325 µM)	relative viability ([3]; first compound 2 µM)	relative viability ([4]; first compound 0.2 µM)	relative viability ([4]; first compound 0.6325 µM)	relative viability ([4]; first compound 2 µM)
NCI-H1666	0.486	0.636	0.631	0.665	0.584	0.91	0.969	1.15	1.09	0.791	1.07	0.841	0.526	0.564	0.505	0.501
NCI-H1993	0.652	0.779	0.824	0.747	0.809	0.93	0.783	0.766	0.754	0.77		0.709	0.548	0.508	0.467	0.519
NCI-H1437	0.762	0.902	0.987	0.9	0.704	1.13	0.862	0.963	0.941	0.916	0.818	1.06	0.795	0.283	0.31	0.224
ABC-1	1.08	1.26	1.21	1.02	1.21	0.941	0.906	0.742	0.44	0.33	1.06	0.893	0.296	0.218	0.226	0.122
NCI-H727	0.857	0.821	0.813	0.83	0.795	0.913	0.931	0.738	0.647	0.361	0.679	0.635	0.221	0.512	0.641	0.341
PC-3 [JPC-3]	0.439	0.441	0.423	0.484	0.429	0.983	0.97	0.82	0.82	0.278	0.993	1	0.946	0.477	0.436	0.454
NCI-H1792		0.881	0.936	1.52	0.661	0.971	0.944	0.942	1.04	0.953	1.06	0.966	0.954	0.268	0.25	0.159
NCI-H1355	1.18	1.03	1	1.14	0.931	1.06	1.02	1.15	1.07	0.906	1.09	0.978	0.568	0.431	0.391	0.327
HCC-827	0.242	0.183	0.259	0.188	0.208	0.966	0.501	0.298	0.218	0.174	0.914	0.907	0.868	0.377	0.41	0.372
NCI-H1944	0.89	0.847	0.746	0.977	0.819	1.07	1.09	0.954	0.918	0.491	1.07	1.03	0.933	0.211	0.202	0.197
NCI-H2405	1.05	0.817	1.11	1.11	1.02	0.809	0.788	0.843	0.924	0.765	0.828		0.644	0.395	0.417	0.312
NCI-H650	0.665	0.625	0.994	1.45	0.718	0.835	0.783	0.771	0.532	0.454	0.799	0.516	0.399	0.462	0.371	0.325
IA-LM		1.02	0.824	0.888	0.673	0.944	0.91	0.868	0.587	0.466	0.626	0.692	0.62			
NCI-H2342														0.532	0.614	0.361
NCI-H522														0.685	0.777	0.608
Calu-6	0.877	1.05	0.959	1.18	0.958	0.835	0.958	0.745	0.664	0.547	0.73	0.687	0.285			
NCI-H1703	0.869	1.11	0.851	1.1	1.19	1.07	0.707	0.765	0.712	0.477	0.743	0.516	0.144			
NCI-H441						0.833	0.739	0.87	0.843	0.514	0.661	0.659	0.315	0.574	0.755	0.258
NCI-H1793	0.748	0.647	0.668	0.828	0.792									0.35	0.371	0.26
NCI-H1623														0.552	0.598	0.484
ChaGo-K-1						1.17	1.14	1.12	1.2	0.924	1.09	1.11	0.713	0.533	0.457	0.339
EBC-1	0.272	0.19	0.239	0.194	0.259	0.17	0.182	0.202	0.147	0.127	0.208	0.174	0.155			

Source: the supplement of paper PMC10307832
